Experiments:
TEC = target: T1, TEC (Homo sapiens, UniProt P42680); test: Proqinase Kinase profiling; assay type: biochemical; conditions: read-out: % inhibition at 100nM
T1 construct: purchased DiscoverX

MAP2K1 = target: T2, MAP2K1 (Homo sapiens, UniProt Q02750); test: Proqinase Kinase profiling; assay type: biochemical; conditions: read-out: % inhibition at 100nM
T2 construct: purchased DiscoverX

KIT_V559D = target: T3, KIT_V559D (Homo sapiens, UniProt P10721, V559D); test: Proqinase Kinase profiling; assay type: biochemical; conditions: read-out: % inhibition at 100nM
T3 construct: purchased DiscoverX

WT ALK2 receptor = target: T4, WT ALK2 receptor (Homo sapiens, UniProt Q04771); test: BRE-LUC reporter assay in C2C12 cells cotransfected with WT ALK2; assay type: cell-based; conditions: BMP-6 50 ng/mL 16 hours, 30-min preincubation, read-out: ALK2wt BMP-6 IC50
T4 construct: expressed in transfected cells; host or cells: C2C12 murine myofibroblast cells
Procedure: (§1) For luciferase reporter assays, cells were seeded in 24-well plates and transfected with DharmaFECT Duo (Fisher Scientific, Landsmeer, The Netherlands), following the recommendations of the manufacturer. 48 hours after transfection the cells were harvested and lysed. […] Each transfection mixture was equalized with empty vector when necessary and every experiment was performed in triplicate.

FRK = target: T5, FRK (Homo sapiens, UniProt P42685); test: Proqinase Kinase profiling; assay type: biochemical; conditions: read-out: % inhibition at 100nM
T5 construct: purchased DiscoverX

ABL1_M351T = target: T6, ABL1_M351T (Homo sapiens, UniProt P00519, M351T); test: Proqinase Kinase profiling; assay type: biochemical; conditions: read-out: % inhibition at 100nM
T6 construct: purchased DiscoverX

IRAK4 = target: T7, IRAK4 (Homo sapiens, UniProt Q9NWZ3); test: Proqinase Kinase profiling; assay type: biochemical; conditions: read-out: % inhibition at 100nM
T7 construct: purchased DiscoverX

CDK8_cyclinC = target: T8, CDK8_cyclinC (Homo sapiens, UniProt P49336); test: Proqinase Kinase profiling; assay type: biochemical; conditions: read-out: % inhibition at 100nM
T8 construct: purchased DiscoverX

PLK4 = target: T9, PLK4 (Homo sapiens, UniProt O00444); test: Proqinase Kinase profiling; assay type: biochemical; conditions: read-out: % inhibition at 100nM
T9 construct: purchased DiscoverX

GRK5 = target: T10, GRK5 (Homo sapiens, UniProt P34947); test: Proqinase Kinase profiling; assay type: biochemical; conditions: read-out: % inhibition at 100nM
T10 construct: purchased DiscoverX

LRRK2_R1441C = target: T11, LRRK2_R1441C (Homo sapiens, UniProt Q5S007, R1441C); test: Proqinase Kinase profiling; assay type: biochemical; conditions: read-out: % inhibition at 100nM
T11 construct: purchased DiscoverX

AURKB = target: T12, AURKB (Homo sapiens, UniProt Q96GD4); test: Proqinase Kinase profiling; assay type: biochemical; conditions: read-out: % inhibition at 100nM
T12 construct: purchased DiscoverX

MAPK14 = target: T13, MAPK14 (Homo sapiens, UniProt Q16539); test: Proqinase Kinase profiling; assay type: biochemical; conditions: read-out: % inhibition at 100nM
T13 construct: purchased DiscoverX

MST4 = target: T14, MST4 (Homo sapiens, UniProt Q9P289); test: Proqinase Kinase profiling; assay type: biochemical; conditions: read-out: % inhibition at 100nM
T14 construct: purchased DiscoverX

EGFR_E746-A750del = target: T15, EGFR_E746-A750del (Homo sapiens, UniProt P00533, DEL746-750); test: Proqinase Kinase profiling; assay type: biochemical; conditions: read-out: % inhibition at 100nM
T15 construct: purchased DiscoverX

GSK3A = target: T16, GSK3A (Homo sapiens, UniProt P49840); test: Proqinase Kinase profiling; assay type: biochemical; conditions: read-out: % inhibition at 100nM
T16 construct: purchased DiscoverX

PIM2 = target: T17, PIM2 (Homo sapiens, UniProt Q9P1W9); test: Proqinase Kinase profiling; assay type: biochemical; conditions: read-out: % inhibition at 100nM
T17 construct: purchased DiscoverX

RET_V804M = target: T18, RET_V804M (Homo sapiens, UniProt P07949, V804M); test: Proqinase Kinase profiling; assay type: biochemical; conditions: read-out: % inhibition at 100nM
T18 construct: purchased DiscoverX

PRKD1 = target: T19, PRKD1 (Homo sapiens, UniProt Q15139); test: Proqinase Kinase profiling; assay type: biochemical; conditions: read-out: % inhibition at 100nM
T19 construct: purchased DiscoverX

SRPK1 = target: T20, SRPK1 (Homo sapiens, UniProt Q96SB4); test: Proqinase Kinase profiling; assay type: biochemical; conditions: read-out: % inhibition at 100nM
T20 construct: purchased DiscoverX

MET_Y1230D = target: T21, MET_Y1230D (Homo sapiens, UniProt P08581, Y1230D); test: Proqinase Kinase profiling; assay type: biochemical; conditions: read-out: % inhibition at 100nM
T21 construct: purchased DiscoverX

MINK1 = target: T22, MINK1 (Homo sapiens, UniProt Q8N4C8); test: Proqinase Kinase profiling; assay type: biochemical; conditions: read-out: % inhibition at 100nM
T22 construct: purchased DiscoverX

KIT_A829P = target: T23, KIT_A829P (Homo sapiens, UniProt P10721, A829P); test: Proqinase Kinase profiling; assay type: biochemical; conditions: read-out: % inhibition at 100nM
T23 construct: purchased DiscoverX

RET_G691S = target: T24, RET_G691S (Homo sapiens, UniProt P07949, G691S); test: Proqinase Kinase profiling; assay type: biochemical; conditions: read-out: % inhibition at 100nM
T24 construct: purchased DiscoverX

PKN1 = target: T25, PKN1 (Homo sapiens, UniProt Q16512); test: Proqinase Kinase profiling; assay type: biochemical; conditions: read-out: % inhibition at 100nM
T25 construct: purchased DiscoverX

MAP3K14 = target: T26, MAP3K14 (Homo sapiens, UniProt Q99558); test: Proqinase Kinase profiling; assay type: biochemical; conditions: read-out: % inhibition at 100nM
T26 construct: purchased DiscoverX

CSNK1G2 = target: T27, CSNK1G2 (Homo sapiens, UniProt P78368); test: Proqinase Kinase profiling; assay type: biochemical; conditions: read-out: % inhibition at 100nM
T27 construct: purchased DiscoverX

PTK6 = target: T28, PTK6 (Homo sapiens, UniProt Q13882); test: Proqinase Kinase profiling; assay type: biochemical; conditions: read-out: % inhibition at 100nM
T28 construct: purchased DiscoverX

ABL1 = target: T29, ABL1 (Homo sapiens, UniProt P00519); test: Proqinase Kinase profiling; assay type: biochemical; conditions: read-out: % inhibition at 100nM
T29 construct: purchased DiscoverX

AURKA = target: T30, AURKA (Homo sapiens, UniProt O14965); test: Proqinase Kinase profiling; assay type: biochemical; conditions: read-out: % inhibition at 100nM
T30 construct: purchased DiscoverX

caALK2 = target: T31, caALK2 (Homo sapiens, UniProt Q04771, Q207D); test: BRE-LUC with constitutive active ALK2 in C2C12 cells; assay type: cell-based; conditions: compound 0.5μM 16 hours
T31 construct: expressed in transfected cells; host or cells: C2C12 murine myofibroblast cells
Procedure: Compounds were added for 16 hours at 0.5μM before luciferase activity was measured.
as §1

MET_D1228N = target: T32, MET_D1228N (Homo sapiens, UniProt P08581, D1228N); test: Proqinase Kinase profiling; assay type: biochemical; conditions: read-out: % inhibition at 100nM
T32 construct: purchased DiscoverX

DDR2 = target: T33, DDR2 (Homo sapiens, UniProt Q16832); test: Proqinase Kinase profiling; assay type: biochemical; conditions: read-out: % inhibition at 100nM
T33 construct: purchased DiscoverX

PLK2 = target: T34, PLK2 (Homo sapiens, UniProt Q9NYY3); test: Proqinase Kinase profiling; assay type: biochemical; conditions: read-out: % inhibition at 100nM
T34 construct: purchased DiscoverX

MAP3K8 = target: T35, MAP3K8 (Homo sapiens, UniProt P41279); test: Proqinase Kinase profiling; assay type: biochemical; conditions: read-out: % inhibition at 100nM
T35 construct: purchased DiscoverX

NTRK2 = target: T36, NTRK2 (Homo sapiens, UniProt Q16620); test: Proqinase Kinase profiling; assay type: biochemical; conditions: read-out: % inhibition at 100nM
T36 construct: purchased DiscoverX

CDK2_cyclinE = target: T37, CDK2_cyclinE (Homo sapiens, UniProt P24941); test: Proqinase Kinase profiling; assay type: biochemical; conditions: read-out: % inhibition at 100nM
T37 construct: purchased DiscoverX

SLK = target: T38, SLK (Homo sapiens, UniProt Q9H2G2); test: Proqinase Kinase profiling; assay type: biochemical; conditions: read-out: % inhibition at 100nM
T38 construct: purchased DiscoverX

EIF2AK2 = target: T39, EIF2AK2 (Homo sapiens, UniProt P19525); test: Proqinase Kinase profiling; assay type: biochemical; conditions: read-out: % inhibition at 100nM
T39 construct: purchased DiscoverX

T15 sequence (P00533 with tags, fused parts or gaps DEL746-750 limits assumed): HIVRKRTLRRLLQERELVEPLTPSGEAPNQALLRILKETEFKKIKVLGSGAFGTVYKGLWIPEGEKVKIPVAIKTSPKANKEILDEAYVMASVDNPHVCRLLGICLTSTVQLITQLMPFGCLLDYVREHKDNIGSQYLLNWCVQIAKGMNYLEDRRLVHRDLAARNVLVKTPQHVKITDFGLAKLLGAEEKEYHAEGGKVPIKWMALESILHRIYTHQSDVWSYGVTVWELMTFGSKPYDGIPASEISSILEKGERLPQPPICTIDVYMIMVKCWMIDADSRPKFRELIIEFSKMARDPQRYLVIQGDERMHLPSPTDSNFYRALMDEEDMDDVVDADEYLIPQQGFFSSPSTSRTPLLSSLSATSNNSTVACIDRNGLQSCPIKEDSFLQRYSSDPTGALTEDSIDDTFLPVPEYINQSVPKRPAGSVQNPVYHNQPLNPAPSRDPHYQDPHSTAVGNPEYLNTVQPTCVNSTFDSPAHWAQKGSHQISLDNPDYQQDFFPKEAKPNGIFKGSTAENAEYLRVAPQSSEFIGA
T33 sequence (Q16832 22-855): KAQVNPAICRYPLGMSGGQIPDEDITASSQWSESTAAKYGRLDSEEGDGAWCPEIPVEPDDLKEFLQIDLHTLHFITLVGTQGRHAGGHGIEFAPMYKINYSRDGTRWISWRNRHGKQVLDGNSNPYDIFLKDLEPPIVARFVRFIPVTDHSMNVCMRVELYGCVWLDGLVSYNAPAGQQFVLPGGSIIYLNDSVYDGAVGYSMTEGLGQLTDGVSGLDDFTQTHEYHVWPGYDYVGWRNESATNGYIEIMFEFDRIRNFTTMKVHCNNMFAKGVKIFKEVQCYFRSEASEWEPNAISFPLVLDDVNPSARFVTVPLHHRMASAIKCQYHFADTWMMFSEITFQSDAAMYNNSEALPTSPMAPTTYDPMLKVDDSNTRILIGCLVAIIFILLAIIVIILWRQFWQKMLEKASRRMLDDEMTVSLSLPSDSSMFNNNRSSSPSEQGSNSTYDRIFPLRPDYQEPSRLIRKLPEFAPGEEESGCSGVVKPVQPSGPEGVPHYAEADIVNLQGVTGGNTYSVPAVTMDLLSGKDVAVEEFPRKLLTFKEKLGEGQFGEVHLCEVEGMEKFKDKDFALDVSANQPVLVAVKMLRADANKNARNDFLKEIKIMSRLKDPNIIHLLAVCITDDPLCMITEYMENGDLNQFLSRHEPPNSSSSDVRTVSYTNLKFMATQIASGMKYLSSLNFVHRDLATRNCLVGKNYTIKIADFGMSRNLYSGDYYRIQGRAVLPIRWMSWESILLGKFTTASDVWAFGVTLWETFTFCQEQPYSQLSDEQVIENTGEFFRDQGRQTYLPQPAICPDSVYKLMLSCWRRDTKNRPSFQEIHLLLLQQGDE
T14 sequence (Q9P289 whole entry): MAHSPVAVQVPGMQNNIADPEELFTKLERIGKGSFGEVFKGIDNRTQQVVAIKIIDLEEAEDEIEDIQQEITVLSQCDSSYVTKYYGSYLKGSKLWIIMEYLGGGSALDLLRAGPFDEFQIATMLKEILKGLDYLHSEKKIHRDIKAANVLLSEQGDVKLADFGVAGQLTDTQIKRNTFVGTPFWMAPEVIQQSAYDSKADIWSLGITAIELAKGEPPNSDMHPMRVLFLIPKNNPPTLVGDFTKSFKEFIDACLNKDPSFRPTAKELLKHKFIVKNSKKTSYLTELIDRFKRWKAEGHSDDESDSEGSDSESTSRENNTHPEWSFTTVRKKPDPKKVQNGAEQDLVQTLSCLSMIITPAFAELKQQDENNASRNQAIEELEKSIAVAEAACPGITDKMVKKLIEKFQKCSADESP
T10 sequence (P34947 whole entry): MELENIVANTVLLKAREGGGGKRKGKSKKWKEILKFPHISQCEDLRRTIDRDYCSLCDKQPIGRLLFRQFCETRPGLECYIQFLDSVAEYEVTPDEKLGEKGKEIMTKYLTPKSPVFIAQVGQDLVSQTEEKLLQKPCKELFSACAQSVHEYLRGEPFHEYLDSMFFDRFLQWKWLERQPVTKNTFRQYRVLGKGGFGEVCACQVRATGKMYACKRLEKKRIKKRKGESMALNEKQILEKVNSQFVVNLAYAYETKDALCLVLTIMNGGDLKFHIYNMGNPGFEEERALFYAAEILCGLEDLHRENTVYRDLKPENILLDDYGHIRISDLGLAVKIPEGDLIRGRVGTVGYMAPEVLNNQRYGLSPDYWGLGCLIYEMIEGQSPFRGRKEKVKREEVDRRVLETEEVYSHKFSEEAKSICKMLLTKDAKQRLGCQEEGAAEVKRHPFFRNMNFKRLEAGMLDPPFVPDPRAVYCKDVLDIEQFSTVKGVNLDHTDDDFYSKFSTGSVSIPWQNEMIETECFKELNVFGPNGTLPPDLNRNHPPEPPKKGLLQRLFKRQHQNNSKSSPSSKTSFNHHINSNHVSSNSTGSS
T19 sequence (Q15139 whole entry): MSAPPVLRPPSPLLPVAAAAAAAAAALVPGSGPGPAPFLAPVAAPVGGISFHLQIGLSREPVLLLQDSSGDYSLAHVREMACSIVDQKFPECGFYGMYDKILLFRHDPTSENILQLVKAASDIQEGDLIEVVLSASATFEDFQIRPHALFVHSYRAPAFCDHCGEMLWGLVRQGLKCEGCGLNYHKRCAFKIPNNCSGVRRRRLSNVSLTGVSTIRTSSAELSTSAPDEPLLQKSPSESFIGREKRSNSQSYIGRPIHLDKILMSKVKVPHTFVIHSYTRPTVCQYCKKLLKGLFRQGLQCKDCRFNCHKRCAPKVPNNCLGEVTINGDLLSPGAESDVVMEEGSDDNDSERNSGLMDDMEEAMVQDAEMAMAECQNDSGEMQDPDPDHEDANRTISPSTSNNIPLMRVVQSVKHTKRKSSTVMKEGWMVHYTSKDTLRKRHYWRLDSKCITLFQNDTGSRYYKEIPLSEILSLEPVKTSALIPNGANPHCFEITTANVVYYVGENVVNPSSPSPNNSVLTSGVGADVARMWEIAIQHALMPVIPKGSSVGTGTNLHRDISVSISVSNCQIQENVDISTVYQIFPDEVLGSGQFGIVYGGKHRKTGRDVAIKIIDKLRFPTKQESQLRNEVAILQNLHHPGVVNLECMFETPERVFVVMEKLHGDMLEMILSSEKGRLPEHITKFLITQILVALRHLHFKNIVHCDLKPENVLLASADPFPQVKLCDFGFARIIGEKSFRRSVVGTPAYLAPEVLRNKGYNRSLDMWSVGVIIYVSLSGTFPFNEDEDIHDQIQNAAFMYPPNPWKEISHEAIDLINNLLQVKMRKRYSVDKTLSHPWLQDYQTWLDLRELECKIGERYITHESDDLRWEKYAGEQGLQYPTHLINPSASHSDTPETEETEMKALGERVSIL
T22 sequence (Q8N4C8 whole entry): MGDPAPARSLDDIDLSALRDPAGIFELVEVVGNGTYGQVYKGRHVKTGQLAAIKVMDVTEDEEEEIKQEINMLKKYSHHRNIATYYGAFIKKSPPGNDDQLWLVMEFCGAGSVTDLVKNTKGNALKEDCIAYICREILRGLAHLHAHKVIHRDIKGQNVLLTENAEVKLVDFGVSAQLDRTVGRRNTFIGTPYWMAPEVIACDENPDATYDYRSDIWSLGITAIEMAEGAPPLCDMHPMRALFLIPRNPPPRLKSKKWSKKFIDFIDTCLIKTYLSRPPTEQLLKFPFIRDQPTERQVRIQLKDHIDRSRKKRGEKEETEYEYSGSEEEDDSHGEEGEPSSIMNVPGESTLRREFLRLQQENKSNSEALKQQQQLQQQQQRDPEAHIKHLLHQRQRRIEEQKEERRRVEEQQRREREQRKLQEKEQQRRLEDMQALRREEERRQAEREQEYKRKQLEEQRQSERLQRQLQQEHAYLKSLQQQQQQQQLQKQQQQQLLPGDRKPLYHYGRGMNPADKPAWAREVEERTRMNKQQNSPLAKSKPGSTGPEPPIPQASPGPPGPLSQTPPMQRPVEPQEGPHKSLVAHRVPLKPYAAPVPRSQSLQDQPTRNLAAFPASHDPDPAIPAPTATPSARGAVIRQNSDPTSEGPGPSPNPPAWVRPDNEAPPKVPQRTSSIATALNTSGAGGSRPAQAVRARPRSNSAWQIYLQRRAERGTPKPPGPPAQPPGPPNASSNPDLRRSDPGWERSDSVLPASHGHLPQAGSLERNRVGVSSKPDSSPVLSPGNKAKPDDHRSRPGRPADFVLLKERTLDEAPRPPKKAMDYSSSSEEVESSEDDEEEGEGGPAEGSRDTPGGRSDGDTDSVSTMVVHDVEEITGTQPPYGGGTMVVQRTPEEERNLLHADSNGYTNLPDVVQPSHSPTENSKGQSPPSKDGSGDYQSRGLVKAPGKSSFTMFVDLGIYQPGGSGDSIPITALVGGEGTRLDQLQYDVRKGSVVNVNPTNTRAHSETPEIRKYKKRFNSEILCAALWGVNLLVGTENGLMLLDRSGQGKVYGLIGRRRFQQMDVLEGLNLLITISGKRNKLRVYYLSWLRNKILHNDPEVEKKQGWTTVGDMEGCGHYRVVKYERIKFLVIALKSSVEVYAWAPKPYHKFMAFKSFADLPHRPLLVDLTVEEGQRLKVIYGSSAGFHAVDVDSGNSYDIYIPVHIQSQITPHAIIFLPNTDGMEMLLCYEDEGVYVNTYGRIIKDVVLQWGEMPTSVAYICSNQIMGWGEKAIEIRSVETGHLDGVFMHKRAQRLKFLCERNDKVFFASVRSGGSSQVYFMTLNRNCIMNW
T17 sequence (Q9P1W9 whole entry): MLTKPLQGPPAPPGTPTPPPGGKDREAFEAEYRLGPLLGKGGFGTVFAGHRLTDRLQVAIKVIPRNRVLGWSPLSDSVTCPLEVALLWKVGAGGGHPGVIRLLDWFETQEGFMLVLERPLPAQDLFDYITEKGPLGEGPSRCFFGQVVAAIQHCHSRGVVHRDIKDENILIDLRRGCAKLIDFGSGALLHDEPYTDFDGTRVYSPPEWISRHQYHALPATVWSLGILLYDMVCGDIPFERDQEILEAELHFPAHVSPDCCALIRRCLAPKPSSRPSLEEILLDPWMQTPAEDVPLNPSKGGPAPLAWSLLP

Row | SMILES | inhibition at 0.1 µM (TEC) [%] | inhibition at 0.1 µM (MAP2K1) [%] | inhibition at 0.1 µM (KIT_V559D) [%] | IC50 (WT ALK2 receptor) [nM] | inhibition at 0.1 µM (FRK) [%] | inhibition at 0.1 µM (ABL1_M351T) [%] | inhibition at 0.1 µM (IRAK4) [%] | inhibition at 0.1 µM (CDK8_cyclinC) [%] | inhibition at 0.1 µM (PLK4) [%] | inhibition at 0.1 µM (GRK5) [%] | inhibition at 0.1 µM (LRRK2_R1441C) [%] | inhibition at 0.1 µM (AURKB) [%] | inhibition at 0.1 µM (MAPK14) [%] | inhibition at 0.1 µM (MST4) [%] | inhibition at 0.1 µM (EGFR_E746-A750del) [%] | inhibition at 0.1 µM (GSK3A) [%] | inhibition at 0.1 µM (PIM2) [%] | inhibition at 0.1 µM (RET_V804M) [%] | inhibition at 0.1 µM (PRKD1) [%] | inhibition at 0.1 µM (SRPK1) [%] | other results
1 | Clc1cc2cc(c1)-c1cnn3ccc(nc13)NCCOCCO2 [OD36] | 6 | 6 | 15 | 308 | 35 | 16 | 13 | 57 | -1 | 1 | 56 | 16 | -4 | 3 | 9 | 6 | 17 | 5 | -11 | 10 | inhibition at 0.1 µM (MET_Y1230D): -6%; inhibition at 0.1 µM (MINK1): 5%; inhibition at 0.1 µM (KIT_A829P): 17%; inhibition at 0.1 µM (RET_G691S): 25%; inhibition at 0.1 µM (PKN1): 16%; inhibition at 0.1 µM (MAP3K14): 10%; inhibition at 0.1 µM (CSNK1G2): -3%; inhibition at 0.1 µM (PTK6): 46%; inhibition at 0.1 µM (ABL1): 3%; inhibition at 0.1 µM (AURKA): -7%; Inhibition of caALK2-driven BRE-LUC activity (caALK2): exclusively inhibited ALK2; inhibition at 0.1 µM (MET_D1228N): 4%; inhibition at 0.1 µM (DDR2): 59%; inhibition at 0.1 µM (PLK2): 17%; inhibition at 0.1 µM (MAP3K8): 5%; inhibition at 0.1 µM (NTRK2): 28%; inhibition at 0.1 µM (CDK2_cyclinE): 7%; inhibition at 0.1 µM (SLK): 13%; inhibition at 0.1 µM (EIF2AK2): 9%
2 | Cc1cc2cc(c1)-c1cnn3ccc(nc13)NCCNC(=O)CCN(C)C2 [OD52] | 0 | 10 | -6 | 1570 | -5 | -7 | -2 | 44 | -1 | 2 | 16 | -4 | 1 | -17 | -11 | 1 | 4 | -6 | -22 | -9 | inhibition at 0.1 µM (MET_Y1230D): -12%; inhibition at 0.1 µM (MINK1): -11%; inhibition at 0.1 µM (KIT_A829P): -10%; inhibition at 0.1 µM (RET_G691S): 24%; inhibition at 0.1 µM (PKN1): 5%; inhibition at 0.1 µM (MAP3K14): -23%; inhibition at 0.1 µM (CSNK1G2): 4%; inhibition at 0.1 µM (PTK6): 0%; inhibition at 0.1 µM (ABL1): 0%; inhibition at 0.1 µM (AURKA): -6%; Inhibition of caALK2-driven BRE-LUC activity (caALK2): exclusively inhibited ALK2; inhibition at 0.1 µM (MET_D1228N): 6%; inhibition at 0.1 µM (DDR2): 6%; inhibition at 0.1 µM (PLK2): -4%; inhibition at 0.1 µM (MAP3K8): -10%; inhibition at 0.1 µM (NTRK2): 28%; inhibition at 0.1 µM (CDK2_cyclinE): 5%; inhibition at 0.1 µM (SLK): 10%; inhibition at 0.1 µM (EIF2AK2): -1%

From article PMC6874179, “Development of Macrocycle Kinase Inhibitors for ALK2 Using Fibrodysplasia Ossificans Progressiva‐Derived Endothelial Cells” (JBMR Plus, 2019)
